Earlier results in US20020004489A1, “Retinoid receptor interacting polynucleotides, polypeptides, and antibodies” (priority 1999, published 2002).

What was measured:
[1] = system: viruses containing the K103N mutation
[2] = system: protease inhibitor-resistant viruses
[3] = deletion of 8-10 C-terminal residues, versus undeleted protein
[4] = system: lamivudine-resistant isolates

In the case of Nc1nc(=O)n([C@@H]2CS[C@H](CO)O2)cc1F [COVIRACIL, emtricitabine], the “activity in vitro relative to lamivudine (3TC)” value (HIV; in vitro, greater activity than lamivudine (3TC)) is given as 3- to 10 fold.
In the case of Nc1nc(=O)n([C@H]2C=C[C@@H](CO)O2)cc1F [DD4FC], the “activity against AZT/3TC-resistant virus” value (AZT/3TC-resistant virus) is listed as “activity against AZT/3TC-resistant virus”.
For CC(C)c1nc(COC(N)=O)n(Cc2ccncc2)c1Sc1cc(Cl)cc(Cl)c1 [CAPRAVIRINE], the “activity against K103N mutants” value [1] is listed as “activity against viruses containing the K103N mutation”.
For Cc1ccccc1CNC(=O)[C@H]1N(C(=O)[C@@H](O)[C@H](Cc2ccccc2)NC(=O)c2cccc(O)c2C)CSC1(C)C [AG-1776], the “in vitro activity against protease inhibitor-resistant viruses” value [2] is listed as “in vitro activity against protease inhibitor-resistant viruses”.
In the case of C[C@H](Sc1nc(N)cc(Cl)n1)c1cc2ccoc2cn1 [PNU-142721], the “activity relative to its predecessor delavirdine” value (HIV; greater activity than delavirdine) is given as 20- to 50 fold and the “activity against K103N mutants” value [1] is given as “active against K103N mutants”.
For Interferon gamma, the “activity after deleting 8-10 amino acid residues from the carboxy terminus” value [3] is given as “up to ten times higher activity”.
For Nc1ccn([C@H]2CO[C@@H](CO)S2)c(=O)n1 [dOTC], the “activity against lamivudine-resistant isolates” value [4] is listed as “retains activity against a substantial proportion of lamivudine-resistant isolates”.
For CC[C@H]1C(=O)Nc2ccc(F)cc2N1C(=O)OC(C)C [GW-420867X], the “activity relative to HBY097” value (HIV; greater activity than HBY097) is given as 25 fold and the “activity against K103N mutants” value [1] is given as “active against K103N mutants”.
